Measured values reported in publication PMC10354055, “An optimized Nurr1 agonist provides disease-modifying effects in Parkinson’s disease models” (Nature Communications, 2023).
Values joined by “and” are separate entries in the source; they are usually repeats but may differ in a detail not shown here. Equal entries are not always repeated.

Tests used:
Nurr1-LBD = Nurr1-LBD (Homo sapiens, UniProt P43354); assay: TR-FRET competition assay with HCQFluo; type: binding; settings: Fig. 1i
Method: TR-FRET assay was performed in PPI Terbium (Tb) detection buffer (PerkinElmer) and contained 0.2 µM of Nurr1-LBD, 0.5 µM of fluorescence-labeled hydroxy-CQ (HCQFluo; Proimaging) and serial concentrations of CQ, 4A7C-301 or RA (10^−4–10^6 nM). Rabbit anti-Nurr1 antibody (3 nM; prepared in our lab) and anti-rabbit IgG-Tb (1:400; Cisbio, 61PARTAF) were included in the assay solution as a donor complex. Assay solutions were loaded in a 384-well OptiPlate™ (PerkinElmer). After 2 h incubation in the dark at room temperature, the FRET signal was measured by excitation at 340 nm and emission at 520 nm for fluorescein and 495 nm for Tb using a VICTOR Nivo plate reader (PerkinElmer). Data were fit using the non-linear regression program in GraphPad Prism version 8.0.2.

N27-A cells [1] = assay: Cell viability, MTT reduction, MPP+-treated N27-A cells; type: cell-based, rat; settings: Fig. 2a, CQ 100 µM, 4A7C-301 1 µM
MN9D cells [2] = assay: Cytotoxicity, LDH release, MPP+-treated MN9D cells; type: cell-based, mouse
Method: Cells were transfected with Nurr1 subcloned into pcDNA3.1 vector[23] for Nurr1 overexpression (OE). […] Nurr1 OE or KD by transfection was analyzed by Western blot.
Cellular oxidative stress was detected using the DCFDA Cellular ROS Assay Kit (Abcam) according to the manufacturer’s protocol. Briefly, cells seeded in black clear bottom 96 well plate were stained with DCFDA solution (20 µM) for 45 min at 37 °C. […] Cytotoxicity was determined by measuring lactate dehydrogenase (LDH) release into the culture medium using a LDH cytotoxicity detection kit (Roche)[33]. Absorbance was measured at 490 nm with a microplate reader and cytotoxicity was calculated as a percentage (%) relative to 1% TritonX-100 control. Cell viability was determined using 3-(4,5-dimethylthiazol-2-yl)-2,5-diphenyltetrazolium bromide (MTT) as previously described. Briefly, cells were incubated with 5 mg/ml of MTT (Sigma-Aldrich) solution for 3.5 h at 37 °C. MTT formazan crystals were dissolved in 10 times the volume of MTT solvent (4 mM HCl and 0.1% Nonidet P-40 in isopropanol) and the absorbance from the generated blue formazan was measured at 570 nm after 15 min incubation at room temperature. Cell viability was calculated as a percentage (%) of MTT reduction relative to vehicle control.

N27-A cells [3] = assay: Cellular oxidative stress, DCFDA ROS assay, N27-A cells; type: cell-based, rat; settings: CQ 100 µM, 4A7C-301 1 µM
MN9D cells [4] = assay: Dopaminergic gene expression (TH, DAT, AADC, VMAT2, c-Ret), qRT-PCR, MN9D cells with MPP+; type: cell-based, mouse; settings: MN9D, decreased by MPP+
Method: Total RNA was extracted using the GeneJET RNA Purification Kit (Thermo Fisher Scientific) and 100 ng of RNA was subjected to cDNA synthesis using Invitrogen Superscript cDNA Synthesis Kit (Invitrogen) according to the manufacturer’s protocol. qRT-PCR was performed using a CFX Connect Real-Time System (Bio-Rad) in a 20 μl volume mixture containing 2X SsoAdvanced Universal SYBR Green Supermix (Bio-Rad), 100 ng/μl of forward and reverse primers, and 1 μl of cDNA sample. Gene expression levels were quantified by the 2^∆∆CT method (Ct of target gene—Ct of glyceraldehyde-3-phosphate dehydrogenase (GAPDH). The following primers were used for qRT-PCR: TH forward: 5′-[…]-3′, reverse: 5′-[…]-3′; DAT forward: 5′-[…]-3′, reverse: 5′-[…]-3′; AADC forward: 5′-[…]-3′, reverse: 5′-[…]-3′; VMAT2 forward: 5′-[…]-3′, reverse: 5′-[…]-3′; c-Ret forward: 5′-[…]-3′, reverse: 5′-[…]-3′; TNFα forward: 5′-[…]-3′; reverse: 5′-[…]-3′; GAPDH, forward 5′-[…]-3′, reverse 5′-[…]-3′.

N27-A cells [5] = assay: Autophagolysosome (APL) formation assay, mRFP-GFP-LC3, N27-A cells; type: cell-based, rat
Method: HeLa and N27-A cells were transfected with tandem mRFP-GFP-LC3 (Addgene) plasmid using Lipofectamine 2000 (Invitrogen) in 24-well plates. After 24 h, cells were incubated in starvation medium (Earle’s Balanced Salt Solution, EBSS; Lonza) containing bafilomycin A1 (BafA1, 10 nM), CQ (20 µM), or 4A7C-301 (1 µM) for 6 h and then fixed with 4% formaldehyde for fluorescence detection. Images were taken using a KEYENCE microscope and red (mRFP) LC3 dots and yellow (mRFP+GFP) LC3 dots were counted from three independent wells for each treatment group. 10 cells were randomly selected and counted from each well and a total of 30 cells were analyzed for each treatment group in both HeLa and N27-A cells.

[6] = Figure 3b, mRFP-GFP-LC3, individual cells (30 per treatment)

Nurr1-LBD, sequence (P43354 360-595 limits assumed, species assumed): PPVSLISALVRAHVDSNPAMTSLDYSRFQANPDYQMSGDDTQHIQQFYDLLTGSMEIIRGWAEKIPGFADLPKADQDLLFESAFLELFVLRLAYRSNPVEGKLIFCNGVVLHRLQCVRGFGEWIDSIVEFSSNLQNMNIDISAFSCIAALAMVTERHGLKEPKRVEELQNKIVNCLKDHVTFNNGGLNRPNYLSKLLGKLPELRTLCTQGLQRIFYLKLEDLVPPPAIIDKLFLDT

CCN(CC)CCCC(C)Nc1ccnc2cc(Cl)ccc12 (centres unmarked) [CQ, chloroquine]
Interaction [HTRF] (Nurr1-LBD; 0.05 µM): 3273.3930 and 3465.5840 and 3369.4880 | Interaction [HTRF] (Nurr1-LBD; 0.1 µM): 3399.0860 and 3151.8330 and 3275.4590 | Interaction [HTRF] (Nurr1-LBD; 0.5 µM): 3111.7350 and 2901.1980 and 3006.4660 | Interaction [HTRF] (Nurr1-LBD; 1 µM): 2895.7250 and 2781.2580 and 2838.4910 | Interaction [HTRF] (Nurr1-LBD; 5 µM): 2113.6450 and 1994.2770 and 2053.9610 | Interaction [HTRF] (Nurr1-LBD; 10 µM): 1574.8930 and 1346.8690 and 1460.8810 | Interaction [HTRF] (Nurr1-LBD; 50 µM): 1485.2580 and 1344.1380 and 1414.6980 | Interaction [HTRF] (Nurr1-LBD; 100 µM): 1202.4890 and 1355.5820 and 1279.0350 | Interaction [HTRF] (Nurr1-LBD; 200 µM): 1193.4910 and 1136.9480 and 1165.2200 | IC50 (Nurr1-LBD; competition with HCQFluo): 2330 nM and 2000 nM | MTT reduction (%) (N27-A cells [1]; Control): 57.8947% and 66.3158% and 61.0526% and 65.2632% | MTT reduction (%) (N27-A cells [1]; Nurr1 KD): 34.0206% and 28.866% and 35.0515% and 27.8351% | MTT reduction (%) (N27-A cells [1]; Nurr1 OE): 79.3814% and 82.4742% and 84.5361% and 87.6289% | LDH release (%) (MN9D cells [2]; Fig. S3f, MPP+, Control, CQ 100 µM, 4A7C-301 1 µM): 40.5948% and 42.0584% and 38.5456% and 42.2156% | LDH release (%) (MN9D cells [2]; Fig. S3f, MPP+, Nurr1 KD, CQ 100 µM, 4A7C-301 1 µM): 55.6098% and 56.4684% | LDH release (%) (MN9D cells [2]; Fig. S3f, MPP+, Nurr1 OE, CQ 100 µM, 4A7C-301 1 µM): 26.1572% and 27.9568% and 27.0629% | LDH release (%) (MN9D cells [2]; Fig. S3d, with MPP+, 1 µM): 41.5124% and 43.1347% and 42.8643% | LDH release (%) (MN9D cells [2]; Fig. S3d, with MPP+, 5 µM): 41.2806% and 41.8214% and 41.3965% | LDH release (%) (MN9D cells [2]; Fig. S3d, with MPP+, 10 µM): 39.6197% and 38.7699% and 40.5081% | LDH release (%) (MN9D cells [2]; Fig. S3d, with MPP+, 50 µM): 38.5767% and 38.7312% and 38.1518% | LDH release (%) (MN9D cells [2]; Fig. S3d, with MPP+, 100 µM): 37.1862% and 37.0703% and 38.1905% | MPP+-induced ROS levels (in words) (N27-A cells [3]): significantly reduced | dopaminergic gene expression (in words) (MN9D cells [4]): significantly rescued | LC3 dots/cell, Red LC3 dots (N27-A cells [5]; [6]): 6 dots/cell (4×) and 7 dots/cell (5×) and 11 dots/cell (6×) and 10 dots/cell (2×) and 5 dots/cell (3×) and 15 dots/cell (2×) and 4 dots/cell (2×) and 8 dots/cell (2×) and 13 dots/cell and 17 dots/cell and 9 dots/cell and 2 dots/cell | LC3 dots/cell, Yellow LC3 dots (N27-A cells [5]; [6]): 25 dots/cell (2×) and 30 dots/cell (6×) and 28 dots/cell (3×) and 20 dots/cell and 17 dots/cell (3×) and 21 dots/cell (4×) and 19 dots/cell and 22 dots/cell (2×) and 23 dots/cell (2×) and 18 dots/cell (2×) and 16 dots/cell and 29 dots/cell (2×) and 31 dots/cell | autophagy process (in words) (N27-A cells [5]; N27-A, EBSS, CQ 20 µM, 4A7C-301 1 µM): inhibits
